{"source": "patent US20110245283A1", "about": "“Methods for predicting the response to statins” (priority 2009, published 2011)", "key": {"LDL [1]": {"tested_on": "LDL", "assay": "Proportion of CAD patients attaining LDL goal (<100 mg/dl) on a statin dose; validation sets stratified by predicted probability", "conditions": "for Proportion of patients achieving goal: validation set"}, "LDL [2]": {"tested_on": "LDL", "conditions": "second study named in the background; any dose adjustment or change; cited from earlier work"}, "LDL [3]": {"tested_on": "LDL", "assay": "Logistic regression models of attaining LDL goal: odds ratios for concurrent or prior drug doses", "format": "in vivo, patients", "method": "G. Covariates for the multivariate model—The following list includes the predictors one or more of which may be tested in the multivariate models. • 1. AGE: (expressed in units of 10 years) at time that the new statin prescription was released • 2. GENDER, E. G., MALE: 1=yes, 0=no • 3. BMI (kg/M^2): last value before release date • 4. HBA1C (hemoglobin Alc): last value before release date • 5. PLDL: preceding LDL level expressed in e.g. 10 mg/dl units • 6. Statins • a. PLOVA: prior daily dose of lovastatin expressed in e.g. 10 mg units • b. […] For additional drugs: • a. AMIODOSE: amiodarone dose in mg/day • b. CARBDOSE: carbemazepine dose in mg/day • c. PIOGDOSE: pioglitazone dose expressed as number of 15 mg doses per day • d. […] METFDOSE: metformin dose expressed as number of 1000 mg doses per day • f. PHENDOSE: phenyloin dose in mg/day • g. RISPDOSE: risperidone dose in mg/day • h. ROSIDOSE: rosiglitazone dose in mg/day • i.\nBody mass index (BMI) was chosen as a covariate of statin response because obese patients tend to consume a diet high in cholesterol. It was hypothesized that they would respond less well to statins because their hypercholesterolemia was more likely to be mediated by dietary indiscretion than excessive LDL synthesis. […] Metformin and the thiazolidinediones were chosen because they reduce LDL levels in diabetic patients through mechanisms that may or may not be affected by concurrent statin treatment. The remaining non-statin drugs were chosen because they are commonly used drugs that potentiate the effect of statins. They were selected by reviewing the official on-line VA pharmaceutical reference (Micromedex®) for major interactions mediated by impaired statin metabolism. […] The daily dose of the non-statin drug was calculated by the method described in Section B.\nH. Assembling the predictor file—The patient identifier was used to link the new statin prescription type and dose, the preceding LDL above goal, and the type and dose of the previous statin (if any) with the patient's most recent HbA1c, most recent BMI, and the daily doses of 9 drugs with major statin interactions that were active at the time the new prescription was released.\nThe dependent variable was attainment of goal (LDL <100 mg/dl). […] Step selections were based upon the maximal likelihood method with α<0.15 to enter and ≧0.15 to remove."}, "LDL [4]": {"tested_on": "LDL", "conditions": "cited from earlier work"}}, "note": "Read-outs that look alike come from different tables or passages of the source."}
{"molecule": "CC[C@H](C)C(=O)O[C@H]1C[C@@H](C)C=C2C=C[C@H](C)[C@H](CC[C@@H]3C[C@@H](O)CC(=O)O3)[C@H]21", "note": "[Lovastatin, lovastatin]", "values": [{"measurement": "Proportion of patients achieving goal", "setting": "LDL [1]; Lovastatin 10 mg model, Overall", "result": 36.8, "unit": "%"}, {"measurement": "Proportion of patients achieving goal", "setting": "LDL [1]; Lovastatin 10 mg model, predicted probability 0-19%", "result": 10.9, "unit": "%"}, {"measurement": "Proportion of patients achieving goal", "setting": "LDL [1]; Lovastatin 10 mg model, predicted probability 20-39%", "result": 31.3, "unit": "%"}, {"measurement": "Proportion of patients achieving goal", "setting": "LDL [1]; Lovastatin 10 mg model, predicted probability 40-59%", "result": 46.8, "unit": "%"}, {"measurement": "Proportion of patients achieving goal", "setting": "LDL [1]; Lovastatin 10 mg model, predicted probability 60-79%", "result": 73.3, "unit": "%"}, {"measurement": "Proportion of patients achieving goal", "setting": "LDL [1]; Lovastatin 20 mg [A] model, Overall", "result": 49.2, "unit": "%"}, {"measurement": "Proportion of patients achieving goal", "setting": "LDL [1]; Lovastatin 20 mg [A] model, predicted probability 0-19%", "result": 15.0, "unit": "%"}, {"measurement": "Proportion of patients achieving goal", "setting": "LDL [1]; Lovastatin 20 mg [A] model, predicted probability 20-39%", "result": 25.8, "unit": "%"}, {"measurement": "Proportion of patients achieving goal", "setting": "LDL [1]; Lovastatin 20 mg [A] model, predicted probability 40-59%", "result": 55.1, "unit": "%"}, {"measurement": "Proportion of patients achieving goal", "setting": "LDL [1]; Lovastatin 20 mg [A] model, predicted probability 60-79%", "result": 73.0, "unit": "%"}, {"measurement": "Proportion of patients achieving goal", "setting": "LDL [1]; Lovastatin 20 mg [A] model, predicted probability 80-100%", "result": 71.4, "unit": "%"}, {"measurement": "Proportion of patients achieving goal", "setting": "LDL [1]; Lovastatin 20 mg [B] model, Overall", "result": 49.3, "unit": "%"}, {"measurement": "Proportion of patients achieving goal", "setting": "LDL [1]; Lovastatin 20 mg [B] model, predicted probability 0-19%", "result": 12.7, "unit": "%"}, {"measurement": "Proportion of patients achieving goal", "setting": "LDL [1]; Lovastatin 20 mg [B] model, predicted probability 20-39%", "result": 33.0, "unit": "%"}, {"measurement": "Proportion of patients achieving goal", "setting": "LDL [1]; Lovastatin 20 mg [B] model, predicted probability 40-59%", "result": 53.6, "unit": "%"}, {"measurement": "Proportion of patients achieving goal", "setting": "LDL [1]; Lovastatin 20 mg [B] model, predicted probability 60-79%", "result": 75.0, "unit": "%"}, {"measurement": "Proportion of patients achieving goal", "setting": "LDL [1]; Lovastatin 20 mg [B] model, predicted probability 80-100%", "result": 64.7, "unit": "%"}, {"measurement": "Proportion of patients achieving goal", "setting": "LDL [1]; Lovastatin 40 mg model, Overall", "result": 49.3, "unit": "%"}, {"measurement": "Proportion of patients achieving goal", "setting": "LDL [1]; Lovastatin 40 mg model, predicted probability 0-19%", "result": 11.1, "unit": "%"}, {"measurement": "Proportion of patients achieving goal", "setting": "LDL [1]; Lovastatin 40 mg model, predicted probability 20-39%", "result": 31.2, "unit": "%"}, {"measurement": "Proportion of patients achieving goal", "setting": "LDL [1]; Lovastatin 40 mg model, predicted probability 40-59%", "result": 50.7, "unit": "%"}, {"measurement": "Proportion of patients achieving goal", "setting": "LDL [1]; Lovastatin 40 mg model, predicted probability 60-79%", "result": 70.7, "unit": "%"}, {"measurement": "Proportion of patients achieving goal", "setting": "LDL [1]; Lovastatin 40 mg model, predicted probability 80-100%", "result": 100, "unit": "%"}, {"measurement": "Proportion of patients achieving goal", "setting": "LDL [1]; Model 1, lovastatin 10 mg, Overall", "result": 36.8, "unit": "%"}, {"measurement": "Proportion of patients achieving goal", "setting": "LDL [1]; Model 1, lovastatin 10 mg, predicted probability 0-19%", "result": 10.9, "unit": "%"}, {"measurement": "Proportion of patients achieving goal", "setting": "LDL [1]; Model 1, lovastatin 10 mg, predicted probability 20-39%", "result": 31.3, "unit": "%"}, {"measurement": "Proportion of patients achieving goal", "setting": "LDL [1]; Model 1, lovastatin 10 mg, predicted probability 40-59%", "result": 46.8, "unit": "%"}, {"measurement": "Proportion of patients achieving goal", "setting": "LDL [1]; Model 1, lovastatin 10 mg, predicted probability 60-79%", "result": 73.3, "unit": "%"}, {"measurement": "Proportion of patients achieving goal", "setting": "LDL [1]; Model 1, lovastatin 20 mg, Overall", "result": 47.4, "unit": "%"}, {"measurement": "Proportion of patients achieving goal", "setting": "LDL [1]; Model 1, lovastatin 20 mg, predicted probability 0-19%", "result": 8.5, "unit": "%"}, {"measurement": "Proportion of patients achieving goal", "setting": "LDL [1]; Model 1, lovastatin 20 mg, predicted probability 20-39%", "result": 29.0, "unit": "%"}, {"measurement": "Proportion of patients achieving goal", "setting": "LDL [1]; Model 1, lovastatin 20 mg, predicted probability 40-59%", "result": 54.4, "unit": "%"}, {"measurement": "Proportion of patients achieving goal", "setting": "LDL [1]; Model 1, lovastatin 20 mg, predicted probability 60-79%", "result": 74.6, "unit": "%"}, {"measurement": "Proportion of patients achieving goal", "setting": "LDL [1]; Model 1, lovastatin 40 mg, Overall", "result": 49.3, "unit": "%"}, {"measurement": "Proportion of patients achieving goal", "setting": "LDL [1]; Model 1, lovastatin 40 mg, predicted probability 0-19%", "result": 11.1, "unit": "%"}, {"measurement": "Proportion of patients achieving goal", "setting": "LDL [1]; Model 1, lovastatin 40 mg, predicted probability 20-39%", "result": 33.3, "unit": "%"}, {"measurement": "Proportion of patients achieving goal", "setting": "LDL [1]; Model 1, lovastatin 40 mg, predicted probability 40-59%", "result": 49.1, "unit": "%"}, {"measurement": "Proportion of patients achieving goal", "setting": "LDL [1]; Model 1, lovastatin 40 mg, predicted probability 60-79%", "result": 73.2, "unit": "%"}, {"measurement": "Chance of success (reaching goal) of any dose choice", "setting": "LDL [1]; this study, all doses", "result": "≤ 50", "unit": "%"}, {"measurement": "Success of dose adjustment (reaching LDL goal)", "setting": "LDL [2]", "result": "≤ 50", "unit": "%"}, {"measurement": "OR", "setting": "LDL [3]; odds of goal LDL <100 mg/dl, Lovastatin 20 mg [A] model (includes HbA1c; n = 595), per dose increment", "result": 0.768}, {"measurement": "OR", "setting": "LDL [3]; odds of goal, Lovastatin 20 mg [B] model (excludes HbA1c; n = 733), per dose increment", "result": 0.542}, {"measurement": "OR", "setting": "LDL [3]; odds of goal, Lovastatin 40 mg model (n = 764), per dose increment", "result": 0.768}, {"measurement": "OR", "setting": "LDL [3]; odds of goal, Lovastatin 80 model (n = 309), per dose increment", "result": 0.868}, {"measurement": "OR", "setting": "LDL [3]; odds of goal, Model 1, Lovastatin 20 mg, per 10 mg/day", "result": 0.593}, {"measurement": "OR", "setting": "LDL [3]; odds of goal, Model 1, Lovastatin 40 mg, per 10 mg/day", "result": 0.770}, {"measurement": "OR", "setting": "LDL [3]; odds of goal, Model 1, Lovastatin 80 mg, per 10 mg/day", "result": 0.868}, {"measurement": "OR", "setting": "LDL [3]; odds of goal, Model 1, Simvastatin 10 mg, per 10 mg/day", "result": 0.434}, {"measurement": "OR", "setting": "LDL [3]; odds of goal, Model 1, Simvastatin 20 mg, per 10 mg/day", "result": 0.615}, {"measurement": "OR", "setting": "LDL [3]; odds of goal, Model 1, Simvastatin 40 mg, per 10 mg/day", "result": 0.928}, {"measurement": "OR", "setting": "LDL [3]; odds of goal, Model 1, Simvastatin 80 mg, per 10 mg/day", "result": 1.04}, {"measurement": "OR", "setting": "LDL [3]; odds of goal, Simvastatin 10 mg [B] model (includes BMI; n = 136), per dose increment", "result": 0.341}, {"measurement": "OR", "setting": "LDL [3]; odds of goal, Simvastatin 10 mg [C] model (excludes BMI; n = 219), per dose increment", "result": 0.382}, {"measurement": "OR", "setting": "LDL [3]; odds of goal, Simvastatin 20 mg model (n = 374), per dose increment", "result": 0.617}, {"measurement": "OR", "setting": "LDL [3]; odds of goal, Simvastatin 40 mg model (n = 698), per dose increment", "result": 0.921}, {"measurement": "Average LDL reduction", "setting": "LDL [4]; Dose 20 mg", "result": 29, "unit": "%"}, {"measurement": "Average LDL reduction", "setting": "LDL [4]; Dose 40 mg", "result": 31, "unit": "%"}, {"measurement": "Average LDL reduction", "setting": "LDL [4]; Dose 80 mg", "result": "40-48%"}]}
